The record followed here is patent US20250074897A1, “PYRIDAZINONES AS PARP7 INHIBITORS” (Ribon Therapeutics, Inc., priority 2019, published 2025).

Molecules are shown by their SMILES.

In general, IC50 refers to the concentration at which inhibition is half-maximal. A higher IC50 goes with lower potency.

For this assay, the target named is T1, PARP7 (TIPARP) (Homo sapiens, UniProt Q7Z3E1).
T1 sequence (Q7Z3E1 1-657): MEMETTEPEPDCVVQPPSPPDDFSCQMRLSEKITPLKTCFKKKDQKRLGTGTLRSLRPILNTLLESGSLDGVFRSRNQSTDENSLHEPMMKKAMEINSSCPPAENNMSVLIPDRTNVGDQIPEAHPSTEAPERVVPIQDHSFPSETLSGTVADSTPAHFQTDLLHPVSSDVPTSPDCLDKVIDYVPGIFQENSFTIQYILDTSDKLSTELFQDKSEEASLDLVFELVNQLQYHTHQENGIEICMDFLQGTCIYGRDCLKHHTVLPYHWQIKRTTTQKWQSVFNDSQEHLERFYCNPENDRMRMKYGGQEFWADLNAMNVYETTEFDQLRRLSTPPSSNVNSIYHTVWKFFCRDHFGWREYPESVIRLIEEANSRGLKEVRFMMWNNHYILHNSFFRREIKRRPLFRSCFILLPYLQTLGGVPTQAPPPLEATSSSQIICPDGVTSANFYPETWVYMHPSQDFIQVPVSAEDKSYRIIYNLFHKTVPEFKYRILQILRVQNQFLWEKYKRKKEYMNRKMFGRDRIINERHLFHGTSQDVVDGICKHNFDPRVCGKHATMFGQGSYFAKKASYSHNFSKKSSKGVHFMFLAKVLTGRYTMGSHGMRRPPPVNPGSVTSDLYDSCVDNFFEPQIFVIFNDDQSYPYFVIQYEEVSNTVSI
As to the kind of experiment: Enzymatic assay for inhibition of PARP7: TR-FRET displacement of biotinylated Probe A from the TIPARP active site. The settings on record: 6 nM TIPARP, 2 nM Probe A, 25° C., 30 min incubation with test compound. It is filed as binding. As to the method: Enzymatic Assay for Inhibition of PARP7
Displacement of Probe A, a biotinylated probe binding to the TIPARP active site, was measured using a time-resolved fluorescence energy transfer (TR-FRET) assay. 20 nL of a dose response curve of each test compound was spotted in black 384-well polystyrene proxiplates (Perkin Elmer) using a Mosquito (TTP Labtech). Reactions were performed in a 8 μL volume by adding 6 μL of TIPARP and Probe A in assay buffer (20 mM HEPES pH=8, 100 mM NaCl, 0.1% bovine serum albumin, 2 mM DTT and 0.002% Tween20), incubating with test compound at 25° C. for 30 min, then adding 2 μL of ULight-anti 6xHis and LANCE Eu-W1024 labeled streptavidin (Perkin Elmer). The final concentrations of TIPARP and Probe A were 6 nM and 2 nM, respectively. The final concentration of ULight-anti 6xHis and LANCE Eu-W1024 labeled streptavidin were 4 nM and 0.25 nM, respectively. Reactions were incubated at 25° C. for an additional 30 min, then read on an Envision platereader equipped with a LANCE/DELFIA top mirror (Perkin Elmer) using excitation of 320 nm and emission of 615 nm and […] with a 90 μs delay. The ratio of the 665/615 nm emission were calculated for each well to determine the amount of complex of TIPARP and Probe A in each well. Control wells containing a negative control of 0.25% DMSO vehicle or a positive control of 100 μM 5-(5-(piperidin-4-yloxy)isoindolin-2-yl)-4-(trifluoromethyl)pyridazin-3(2H)-one were used to calculate the % inhibition as described below:
where TRFempd is the TR-FRET ratio from the compound treated well, TRFmin is the TR-FRET ratio from the 5-(5-(piperidin-4-yloxy)isoindolin-2-yl)-4-(trifluoromethyl)pyridazin-3(2H)-one-treated positive control well and TRFmax is the TR-FRET ratio from the DMSO-treated negative control well.
The % inhibition values were plotted as a function of compound concentration and the following 4-parameter fit was applied to derive the IC50 values:
where top and bottom are normally allowed to float, but may be fixed at 100 or 0 respectively in a 3-parameter fit. The Hill Coefficient is normally allowed to float but may also be fixed at 1 in a 3-parameter fit. Y is the % inhibition and X is the compound concentration.
(Time-resolved FRET reads energy transfer from a long-lived donor to a nearby acceptor.)
Turning to `C[C@@H](COC[C@@H](O)C(=O)N1CCN(c2ncc(C(F)(F)F)s2)CC1)Nc1cn[nH]c(=O)c1C(F)(F)F` [Example 3A, 5-((S)-1-((R)-2-hydroxy-3-oxo-3-(4-(5-(trifluoromethyl)thiazol-2-yl)piperazin-1-yl)propoxy)propan-2-ylamino)-4-(trifluoromethyl)pyridazin-3(2H)-one], the IC50 was < 100 nM.
Next, `C[C@@H](COC[C@H](O)C(=O)N1CCN(c2ncc(C(F)(F)F)s2)CC1)Nc1cn[nH]c(=O)c1C(F)(F)F` [Example 3B, 5-((S)-1-((S)-2-hydroxy-3-oxo-3-(4-(5-(trifluoromethyl)thiazol-2-yl)piperazin-1-yl)propoxy)propan-2-ylamino)-4-(trifluoromethyl)pyridazin-3(2H)-one]: < 100 nM; `C[C@@H](COC[C@@H](O)C(=O)N1CCN(c2ncc(C(F)F)cn2)CC1)Nc1cn[nH]c(=O)c1C(F)(F)F` [Example 4A, 5-(((S)-1-((R)-3-(4-(5-(difluoromethyl)pyrimidin-2-yl)piperazin-1-yl)-2-hydroxy-3-oxopropoxy)propan-2-yl)amino)-4-(trifluoromethyl)pyridazin-3(2H)-one]: < 100 nM; `C[C@@H](COC[C@H](O)C(=O)N1CCN(c2ncc(C(F)F)cn2)CC1)Nc1cn[nH]c(=O)c1C(F)(F)F` [Example 4B, 5-(((S)-1-((S)-3-(4-(5-(difluoromethyl)pyrimidin-2-yl)piperazin-1-yl)-2-hydroxy-3-oxopropoxy)propan-2-yl)amino)-4-(trifluoromethyl)pyridazin-3(2H)-one]: < 100 nM.
Take `C[C@@H](COCC(C)(O)C(=O)N1CCN(c2ncc(C(F)(F)F)cn2)CC1)Nc1cn[nH]c(=O)c1C(F)(F)F` (stereo partly drawn) [Example 5, 5-(((2S)-1-(2-hydroxy-2-methyl-3-oxo-3-(4-(5-(trifluoromethyl)pyrimidin-2-yl)piperazin-1-yl)propoxy)propan-2-yl)amino)-4-(trifluoromethyl)pyridazin-3(2H)-one]: the concentration for half-maximal inhibition (IC50) was < 100 nM.
Next, `C[C@@H](COC[C@@H](O)C(=O)N1CCN(c2cnc(C(F)(F)F)cn2)CC1)Oc1cn[nH]c(=O)c1C(F)(F)F` [Example 8A, 5-(((S)-1-((R)-2-hydroxy-3-oxo-3-(4-(5-(trifluoromethyl)pyrazin-2-yl)piperazin-1-yl)propoxy)propan-2-yl)oxy)-4-(trifluoromethyl)pyridazin-3(2H)-one]: < 100 nM; `C[C@@H](COC[C@H](O)C(=O)N1CCN(c2cnc(C(F)(F)F)cn2)CC1)Oc1cn[nH]c(=O)c1C(F)(F)F` [Example 8B, 5-(((S)-1-((S)-2-hydroxy-3-oxo-3-(4-(5-(trifluoromethyl)pyrazin-2-yl)piperazin-1-yl)propoxy)propan-2-yl)oxy)-4-(trifluoromethyl)pyridazin-3(2H)-one]: < 100 nM; `C[C@@H](COC[C@@H](O)C(=O)N1CCN(c2ncc(Cl)cn2)CC1)Oc1cn[nH]c(=O)c1C(F)(F)F` [Example 9A, 5-(((S)-1-((R)-3-(4-(5-chloropyrimidin-2-yl)piperazin-1-yl)-2-hydroxy-3-oxopropoxy)propan-2-yl)oxy)-4-(trifluoromethyl)pyridazin-3(2H)-one]: < 100 nM.
As to `C[C@@H](COC[C@@H](O)C(=O)N1CCN(c2ccc(C#N)cn2)CC1)Oc1cn[nH]c(=O)c1C(F)(F)F` [Example 10A, 6-(4-((R)-2-hydroxy-3-((S)-2-((6-oxo-5-(trifluoromethyl)-1,6-dihydropyridazin-4-yl)oxy)propoxy)propanoyl)piperazin-1-yl)nicotinonitrile], the 50% inhibitory concentration (IC50) is < 100 nM.
Next, `C[C@@H](COC[C@@H](O)C(=O)N1CCN(c2ncc(C(F)F)cn2)CC1)Oc1cn[nH]c(=O)c1C(F)(F)F` [Example 11A, 5-(((S)-1-((R)-3-(4-(5-(difluoromethyl)pyrimidin-2-yl)piperazin-1-yl)-2-hydroxy-3-oxopropoxy)propan-2-yl)oxy)-4-(trifluoromethyl)pyridazin-3(2H)-one]: < 100 nM.
Next, `COC[C@@H](COCC(O)C(=O)N1CCN(c2ncc(C(F)(F)F)cn2)CC1)Nc1cn[nH]c(=O)c1C(F)(F)F` (stereo partly drawn) [Example 14, 5-(((2S)-1-(2-hydroxy-3-oxo-3-(4-(5-(trifluoromethyl)pyrimidin-2-yl)piperazin-1-yl)propoxy)-3-methoxypropan-2-yl)amino)-4-(trifluoromethyl)pyridazin-3(2H)-one]: < 100 nM; `CC[C@@H](COCC(O)C(=O)N1CCN(c2ncc(C(F)(F)F)cn2)CC1)Nc1cn[nH]c(=O)c1C(F)(F)F` (stereo partly drawn) [Example 15, 5-(((2S)-1-(2-hydroxy-3-oxo-3-(4-(5-(trifluoromethyl)pyrimidin-2-yl)piperazin-1-yl)propoxy)butan-2-yl)amino)-4-(trifluoromethyl)pyridazin-3(2H)-one]: < 100 nM; `O=C([C@H](O)COC[C@H](COC(F)(F)F)Nc1cn[nH]c(=O)c1C(F)(F)F)N1CCN(c2ncc(C(F)(F)F)cn2)CC1` [Example 16A, 5-(((R)-1-((R)-2-hydroxy-3-oxo-3-(4-(5-(trifluoromethyl)pyrimidin-2-yl)piperazin-1-yl)propoxy)-3-(trifluoromethoxy)propan-2-yl)amino)-4-(trifluoromethyl)pyridazin-3(2H)-one]: < 100 nM.
Turning to `O=C([C@@H](O)COC[C@H](COC(F)(F)F)Nc1cn[nH]c(=O)c1C(F)(F)F)N1CCN(c2ncc(C(F)(F)F)cn2)CC1` [Example 16B, 5-(((R)-1-((S)-2-hydroxy-3-oxo-3-(4-(5-(trifluoromethyl)pyrimidin-2-yl)piperazin-1-yl)propoxy)-3-(trifluoromethoxy)propan-2-yl)amino)-4-(trifluoromethyl)pyridazin-3(2H)-one], the IC50 was < 100 nM.
Next, `O=C(C(O)COC[C@@H]1CCN1c1cn[nH]c(=O)c1C(F)(F)F)N1CCN(c2ncc(C(F)(F)F)cn2)CC1` (stereo partly drawn) [Example 18, 5-((2S)-2-((2-hydroxy-3-oxo-3-(4-(5-(trifluoromethyl)pyrimidin-2-yl)piperazin-1-yl)propoxy)methyl)azetidin-1-yl)-4-(trifluoromethyl)pyridazin-3(2H)-one]: < 100 nM.
